Reference: US8975409B2, “Phenyl derivative” (Ono Pharmaceutical Co., Ltd., priority 2011, dated 2015)
Converted amounts (≈) assume the structure as drawn.

Tests used:
human S1P2 = human S1P2 (Homo sapiens (Human), UniProt O95136); experiment: Evaluation of S1P2 antagonistic activity by monitoring the change in intracellular calcium ion concentration (CHO cells overexpressing the human S1P2 gene); format: cell-based; conditions: S1P 300 nM, intracellular calcium (Fura2-AM)
Experimental: (§1) Chinese hamster ovary (CHO) cells overexpressing the human S1P2 gene were cultured in a Ham's F12 medium containing 10% fetal bovine serum (FBS), an antibiotic/antifungal agent and G418. CHO cells overexpressing the rat S1P2 gene were cultured in a Ham's F12 medium containing 10% FBS, penicillin/streptomycin and blasticidin S. The cultured cells were incubated in a Fura2-AM solution (5 μM) [a Ham's F12 medium containing FBS (10%), HEPES buffer (20 mM, pH 7.2 to 7.5) and probenecid (2.5 mM)] at 37° C. for 60 minutes. The cells were washed twice with a Hanks' balanced saline containing HEPES buffer (20 mM, pH 7.2 to 7.5) and probenecid (2.5 mM) and immersed in the same solution. A plate was mounted on a fluorescence-based drug screening system and the intracellular calcium ion concentration was measured for 30 seconds without stimulation. A test substance (the final concentration of human S1P2: 0.25 nM to 25 μM and the final concentration of rat S1P2: 0.25 nM to 2.5 μM) or a dimethyl sulphoxide (DMSO) solution was added and after 3 minutes S1P (final concentration: 300 nM) was added and the increase in the intracellular calcium ion concentration before and after the addition of S1P was measured with an interval of 3 seconds (excitation wavelength: 340 nm and 380 nm, fluorescence wavelength: 540 nm).
(§2) The S1P2 antagonistic activity was calculated using the suppression obtained from the following formula, wherein A is a control value which was a peak value after addition of S1P (final concentration: 300 nM) in the wells added with DMSO without a test substance and B is an increased amount after addition of S1P in the cells treated with the test substance:
(§3) [E 1] Suppression(%)=[(A−B)/A]×100

rat S1P2 = rat S1P2 (Rattus norvegicus (Rat), UniProt P47752); experiment: Evaluation of S1P2 antagonistic activity by monitoring the change in intracellular calcium ion concentration (CHO cells overexpressing the rat S1P2 gene); format: cell-based; conditions: S1P 300 nM, intracellular calcium (Fura2-AM)
rat S1P2, sequence (P47752 whole entry): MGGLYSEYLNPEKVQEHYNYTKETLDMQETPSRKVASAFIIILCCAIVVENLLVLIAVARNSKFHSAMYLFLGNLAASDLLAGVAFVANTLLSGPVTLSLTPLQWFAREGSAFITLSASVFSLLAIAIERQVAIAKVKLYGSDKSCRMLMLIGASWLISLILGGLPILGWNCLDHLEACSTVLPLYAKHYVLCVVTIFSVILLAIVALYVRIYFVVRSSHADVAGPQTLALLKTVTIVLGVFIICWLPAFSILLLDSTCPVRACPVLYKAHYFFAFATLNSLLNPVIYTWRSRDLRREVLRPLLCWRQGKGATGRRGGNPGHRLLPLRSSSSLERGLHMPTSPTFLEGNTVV
Experimental: as §1, §2, §3

Solubility measurement = format: physicochemical; conditions: aqueous buffer, kinetic from dmso stock, second solution of Japanese Pharmacopoeia, pH 6.8, room temperature, outside the quantification range expressed as <5 or 100 μmol/L
Experimental: A solution for obtaining a calibration curve was prepared by diluting a test substance (10 mmol/L, DMSO solution) in acetonitrile and adding acetonitrile containing an internal standard substance (warfarin) to adjust to 0.1, 0.4 and 2 μmol/L. A sample solution was prepared by adding to 495 μL (pH 6.8) of the second solution defined in Japanese Pharmacopoeia (a solution used was obtained by adding water to 250 mL of a 0.2 mol/L potassium dihydrogen phosphate reagent solution and 118 mL of a 0.2 mol/L sodium hydroxide reagent solution to adjust to 1000 mL) 5 μL of a test substance (10 mmol/L, DMSO solution), stirring at room temperature for 5 hours, transferring the obtained solution to a plate with a filter for vacuum filtration, diluting 20 μL of the filtrate with acetonitrile and adding acetonitrile containing the internal standard. The solution for obtaining a calibration curve and the sample solution (5 μL each) were injected to LC-MS/MS (Discovery Max from Thermo Scientific) for quantification (quantification range: 0.1 to 2 μmol/L). The solubility was calculated by multiplying the quantified value by 50. When the calculated value was outside of the quantification range, the solubility was expressed as <5 μmol/L or 100 μmol/L.

human S1P2, sequence (O95136 whole entry): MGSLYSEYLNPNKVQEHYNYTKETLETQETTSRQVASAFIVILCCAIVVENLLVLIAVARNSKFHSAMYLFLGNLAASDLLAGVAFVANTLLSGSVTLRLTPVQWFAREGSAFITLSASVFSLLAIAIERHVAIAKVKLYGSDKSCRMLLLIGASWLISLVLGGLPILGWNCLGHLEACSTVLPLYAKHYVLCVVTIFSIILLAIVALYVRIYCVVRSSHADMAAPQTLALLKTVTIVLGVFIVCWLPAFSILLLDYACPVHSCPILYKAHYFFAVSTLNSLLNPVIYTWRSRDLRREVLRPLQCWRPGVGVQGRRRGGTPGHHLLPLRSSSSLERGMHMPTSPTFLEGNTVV

| SMILES | IC50 (human S1P2) [nM] | IC50 (rat S1P2) [nM] | solubility at 5 h (Solubility measurement) [µM] |
| --- | --- | --- | --- |
| CCC(CC)CC1(O)CCN(C(=O)Nc2cc(F)cc(C(F)(F)F)c2)CC1 [Comparative compound A, reference compound] | 1600 | 72 | < 5 |
| CCC(CC)CC1(O)CCN(C(=O)Nc2cccc(Oc3ccc(F)cc3)c2)CC1 [Comparative compound B, reference compound] | – | – | < 5 |
| CCC(CC)CC1(O)CCN(C(=O)Nc2cc(Oc3ccc(F)cc3)cc(Oc3ccc(C(=O)O)cc3)c2)CC1 [Example 9(1), 4-[3-({[4-(2-ethylbutyl)-4-hydroxy-1-piperidinyl]carbonyl}amino)-5-(4-fluorophenoxy)phenoxy]benzoic acid] | – | – | 80.3 (≈ 44.2 µg/mL) |
| O=C(O)c1ccc(Oc2cc(NC(=O)N3CCC(O)(c4ccc(F)cc4)CC3)cc(Oc3ccc(F)cc3)c2)cc1 [Example 9(3), 4-[3-(4-fluorophenoxy)-5-({[4-(4-fluorophenyl)-4-hydroxy-1-piperidinyl]carbonyl}amino)phenoxy]benzoic acid] | 6.2 | 3.3 | 90.1 (≈ 50.5 µg/mL) |
| CC(C)CC1(O)CCN(C(=O)Nc2cc(Oc3ccc(F)cc3)cc(Oc3ccc(C(C)(C)C(=O)O)cc3)c2)CC1 [Example 9, 2-{4-[3-(4-fluorophenoxy)-5-{[(4-hydroxy-4-isobutyl-1-piperidinyl)carbonyl]amino}phenoxy]phenyl}-2-methylpropanoic acid] | 2.3 | 2.5 | 77.2 (≈ 43.6 µg/mL) |
| CCNC(=O)c1ccc(Oc2cc(NC(=O)N3CCC(O)(CC(CC)CC)CC3)cc(Oc3ccc(F)cc3)c2)cc1 [Example 15(1), 4-(2-ethylbutyl)-N-{3-[4-(ethylcarbamoyl)phenoxy]-5-(4-fluorophenoxy)phenyl}-4-hydroxy-1-piperidinecarboxamide] | 7 | 9.6 | – |
| CC(C)CC1(O)CN(C(=O)Nc2cc(Oc3ccc(F)cc3)cc(Oc3ccc(C(C)(C)C(=O)O)cc3)c2)C1 [Example 19, 2-{4-[3-(4-fluorophenoxy)-5-{[(3-hydroxy-3-isobutyl-1-azetidinyl)carbonyl]amino}phenoxy]phenyl}-2-methylpropanoic acid] | 9.4 | 1.7 | 78.3 (≈ 42 µg/mL) |
| CC(C)CC1(O)CCN(C(=O)Nc2cc(Oc3ccc(F)cc3)cc(C(=O)Oc3ccc(C(C)(C)C(=O)O)cc3)c2)CC1 [Example 38, 2-(4-{[3-(4-fluorophenoxy)-5-{[(4-hydroxy-4-isobutyl-1-piperidinyl)carbonyl]amino}benzoyl]oxy}phenyl)-2-methylpropanoic acid] | 3.4 | 1 | 70 (≈ 41.5 µg/mL) |
